Assay results taken from US8552052B2, “Use of diindolylmethane-related indoles for the treatment and prevention of respiratory syncytial virus associated conditions” (BioResponse, L.L.C., priority 2004, dated 2013).
“Also recorded” adds a separate entry of the source.

Assays:
RSV A2 = experiment: RSV infection in cyclophosphamide pre-treated mice (pulmonary titer, histology); type: in vivo; conditions: cyclophosphomide pre-treated mice; vs vehicle treated placebo group
From the text: Another in vivo model of RSV infection has been developed using mice treated with cylphosphamide to induce immune deficiency and create a standardized receptive host for experimental infection (Sudo et al., 1999, Antivir Chem Chemother. 10:135-9). The technique provides for quantitation of pulmonary viral load following induced infection. This model can be used to assess the impact of daily intraperitoneal injections of DIM and/or an EGFR inhibitor drug (Gefitinib or Erlotinib) on in vivo RSV replication and induced pathology.
Alternatively, mice are treated intraperitoneally with 100 mg of cyclophosphamide (CYP) per kg of body weight 5 days before virus inoculation. The mice are weighed, anesthetized with sodium pentobarbital (50 mg/kg), and inoculated intranasally with approximately 10^5 PFU of RSV A2 in 50 μl (day 0). […]
Alternatively, the removed lungs are homogenized with glass homogenizers with a Teflon pestle (Ikemoto Scientific Technology Co., Ltd., Tokyo, Japan) in 4 ml of Hanks balanced salt solution supplemented with 0.218 M sucrose, 4.4 mM glutamate, 3.8 mM KH2PO4, and 3.2 mM K2HPO4 as described previously (Piazza et al., 1993, J. Virol. 67:1503-1510). […] The numbers of RSV plaques are counted.
Histologic methods and evaluation. […] The stained sections are coded by number and are evaluated blind as to the previous treatment. […]

RSV, strain A2 = experiment: Production of infectious RSV from infected A549 cells (plaque titer on HEp-2 monolayers); type: cell-based, Respiratory Syncytial Virus
Protocol: Cell Culture—A549 cells, a tumor cell line with properties of normal airway epithelial cells, were obtained from American Type Culture Collection (ATCC, Manassas, Va.) and incubated at 37° C. in 5% CO2. The cells were cultured in Eagle's minimum essential medium (MEM, Invitrogen) supplemented with 10% fetal bovine serum (HyClone, Logan, Utah) and […] gentamicin. The A549 cells were subcultured by harvesting in 0.12% trypsin no more than 20 times from stock originally designated at pass 70. To minimize effects of exogenous growth factors or cytokines in this system, the supplemented serum concentration was reduced to 0.5% 24 h prior to and during all experiments with RSV infection. […] RSV Virus—RSV, strain A2, was obtained from Advanced Biotechnologies Inc. (Columbia, Md.) and was used directly as supplied for all experiments. The viral preparation was tested to have a TCID50 titer of ˜1×10^9 in Hep-2 cells at 7 days. […] Levels of Production of Infectious RSV—Production of infectious RSV particles in A549 cell culture in the presence of various concentrations of DIM was measured using a method where the cell free media were titered for RSV infectious activity on a monolayer culture of Hep-2 cells. […] The plaques that appeared around 48 h of incubation were visualized by neutral red staining and counted.

## c1ccc2c(Cc3c[nH]c4ccccc34)c[nH]c2c1 [DIM, 3,3′-diindolylmethane]
RSV A2
  pathology score on histologic examination: reduced pathology score
  pulmonary RSV titers: reduction of pulmonary RSV titers
RSV, strain A2; 72 hour treatment of infected A549 cells, DIM 70, 210, 700 nM, LY294002 2 and 5 μM, FIG. 2
  RSV yield: viral replication and production of extracellular, progeny RSV viral particles: reduced production of infectious, progeny RSV virons; also recorded: significantly reduced viral replication and production of extracellular, progeny RSV viral particles
RSV, strain A2; infected A549 cells, 72 h, nM DIM vs higher concentrations of LY294002
  Reduction of RSV replication by DIM compared with LY294002: equal or greater to that caused by LY294002; also recorded: comparable to that seen with higher concentrations of LY294002
